The test system of data set [1] is avoidance response. The data set can be described thus: Active avoidance test. The format is in vivo. To be noted: Rattus norvegicus; male Fischer 344 rats; oral, 60 minutes prior to the test; read-out: Inhibition of avoidance response (ED50). From the text:
Effect of Treatment in Active Avoidance Test.
The administration of incremental doses of an antipsychotic drug in the rat causes inhibition of the active avoidance response and an increase in the number of escape responses without any increase in failures. This change in the animal's avoidance behaviour is characteristic of the effect of the administration of a compound endowed with anti-psychotic activity. Therefore, the evaluation of such behaviour enables us to detect and determine the antipsychotic capacity of a product.
Male Fischer 344 rats weighing 180 g (Charles River) were used.
To carry out the test to assess the avoidance behaviour of the rats a piece of equipment was used (Ugo Basile) consisting of a plastic cage divided into two compartments by a partition wall with an aperture in it allowing communication between the two sectors. Each of the two sectors can be illuminated by a 10 Watt lamp placed above a plexiglas lid covering the cage. A programming device allows the regulation of the duration and frequency of the unconditioned and discriminatory stimuli and a computerised system acquires the experimental data. […]
Before treatment with the study compounds, the animals were selected in relation to their ability to master the task. […] The results were expressed as means and standard errors.

The subject of data set [2] is catalepsy. The data set can be described thus: in vivo. To be noted: male, Wistar, rat, po, Induction of catalepsy (ED50).
Description: Effect of Treatment in Catalepsy Test.
(§1) The test was carried out on male rats of the Wistar strain (n=7 animals); evaluation of catalepsy was done by means of a metal rod measuring 0.6 cm in diameter positioned at a distance of 10 cm from the work surface. […] Subsequent observations were recorded at 60, 90, 120, 180, 240, and 300 minutes after administration.
For data set [3], the target named is T1, 5HT2a receptor (Rattus norvegicus, UniProt P14842).
T1 construct: using different cerebral areas (striate D1 and D2; prefrontal cortex 5HT2a); from tissue; host or cells: prefrontal cortex
T1 sequence (P14842 whole entry): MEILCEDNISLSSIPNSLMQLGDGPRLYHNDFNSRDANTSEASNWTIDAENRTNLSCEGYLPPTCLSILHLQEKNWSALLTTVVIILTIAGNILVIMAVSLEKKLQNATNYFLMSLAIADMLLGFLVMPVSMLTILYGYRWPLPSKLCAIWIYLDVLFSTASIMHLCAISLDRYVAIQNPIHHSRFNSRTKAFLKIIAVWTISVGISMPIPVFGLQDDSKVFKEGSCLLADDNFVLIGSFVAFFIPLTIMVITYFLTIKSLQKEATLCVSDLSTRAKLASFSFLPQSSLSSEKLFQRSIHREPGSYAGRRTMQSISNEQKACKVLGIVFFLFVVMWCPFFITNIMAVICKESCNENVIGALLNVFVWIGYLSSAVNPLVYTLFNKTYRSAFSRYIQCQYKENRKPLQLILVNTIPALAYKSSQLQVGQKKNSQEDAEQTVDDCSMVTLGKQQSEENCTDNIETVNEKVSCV
In words: Radioligand binding to 5HT2a receptor (prefrontal cortex, 3H-ketanserin).
Description: (§2) For the D2 receptor ^3H-Spiperone (0.2 nM) was used and the non-specific binding was determined in the presence of 100 μM of (−)sulpiride. As regards the D3 receptor, the radioligand selected 3H-7-OH-DPAT was used at the concentration of 0.2 μM and the non-specific binding was obtained in the presence of dopamine 10 μM. Lastly, interaction with 5HT2a was evaluated using ^3H-ketanserin (0.7 μM) and the non-specific binding was determined in the presence of methysergide 1 μM.

In data set [4] the target is T2, cloned dopamine receptor subtype 3 (Rattus norvegicus, UniProt P19020).
T2 construct: purchased Signal Screen; host or cells: Sf9 cells
T2 sequence (P19020 whole entry): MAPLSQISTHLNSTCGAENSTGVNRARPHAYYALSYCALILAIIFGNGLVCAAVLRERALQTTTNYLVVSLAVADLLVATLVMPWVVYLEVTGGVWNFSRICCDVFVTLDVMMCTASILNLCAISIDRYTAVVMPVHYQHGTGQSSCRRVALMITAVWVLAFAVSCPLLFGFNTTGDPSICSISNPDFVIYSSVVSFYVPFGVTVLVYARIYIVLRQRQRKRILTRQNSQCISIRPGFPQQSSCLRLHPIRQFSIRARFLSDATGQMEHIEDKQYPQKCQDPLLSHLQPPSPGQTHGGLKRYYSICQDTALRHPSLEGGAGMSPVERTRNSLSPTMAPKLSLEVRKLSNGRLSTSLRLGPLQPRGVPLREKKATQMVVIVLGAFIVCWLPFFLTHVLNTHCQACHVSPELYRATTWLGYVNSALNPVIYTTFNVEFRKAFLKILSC
The data set can be described thus: Radioligand binding to D3 receptor (transfected Sf9 cell membranes, 3H-7-OH-DPAT).
Description: as §2

Data set [5] has as its target D1 receptor (Rattus norvegicus, UniProt P18901).
Description: as §2
Data set [6] deals with catalepsy. To be noted: rat, in vivo, po, 100 mg/kg.
Description: Effect of Treatment in Catalepsy Test.
as §1

The results in this text go back to US20080293689A1, “Compounds with Atypical Antipsychotic Activity” (SIGMA-TAU INDUSTRIE FARMACEUTICHE RIUNITE S.P.A., priority 2004, published 2008).

“And” between values parts separate entries of the source, which are not always exact repeats. Equal values may be shown once.

D1 receptor, sequence (P18901 whole entry): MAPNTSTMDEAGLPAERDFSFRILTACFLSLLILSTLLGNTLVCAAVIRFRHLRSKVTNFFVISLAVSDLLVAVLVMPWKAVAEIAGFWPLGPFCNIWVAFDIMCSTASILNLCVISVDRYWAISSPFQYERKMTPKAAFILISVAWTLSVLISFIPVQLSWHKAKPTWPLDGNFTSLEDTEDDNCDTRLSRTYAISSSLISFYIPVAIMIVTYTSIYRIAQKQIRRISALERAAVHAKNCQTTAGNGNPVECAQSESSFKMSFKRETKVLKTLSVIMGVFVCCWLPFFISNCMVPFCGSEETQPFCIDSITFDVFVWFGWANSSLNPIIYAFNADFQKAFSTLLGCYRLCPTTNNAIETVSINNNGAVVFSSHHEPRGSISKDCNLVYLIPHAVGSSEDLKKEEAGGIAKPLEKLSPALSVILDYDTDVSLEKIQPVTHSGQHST

With `CN1CCN(C2=Nc3cc(Cl)ccc3Nc3ccccc32)CC1` [Clozapine, reference compound], the ED50 in data set [1] is 4.9 mg/kg and 15 µmol/kg; in data set [2] it was 100 mg/kg and 276 µmol/kg.

As to `CN1CCN(C2=Cc3ccccc3Cn3cccc32)CC1` [ST2329, 11-(4-Methylpiperazin-1-yl)-5H-pyrrolo[2,1-b][2]benzazepine], the “5HT2A pKi” value in data set [3] is 8.14. In addition, the “Log Y” value in data set [3] (from relative affinity for 5HT2, D2 and D1, classic >6.48, atypical <6.48) is 3.20. Further, the Ki worked out at 7.2 nM in data set [3] (prefrontal cortex, 3H-ketanserin); 224 nM in data set [4]; 125 nM in data set [5] (read-out: D1 (Ki: nM), striate, [3H]-SCH 23390). Besides, in data set [1], the ED50 was 0.56 mg/kg and 2 µmol/kg. For the same molecule, the “D1 pKi” value in data set [5] amounted to 6.90. Moreover, the Presence of catalepsy entry in data set [6] is “no presence of catalepsy was detected”.

Broadly, the ED50 is the dose that gives a 50% effect, or the effect in half of the subjects. A word on the Ki: it is a measure of affinity in units of concentration, obtained from inhibition or displacement.
